Laboratory results: patent publication US6995185B2, “Δ1-pyrrolines used as pesticides” (Bayer Cropscience AG, priority 2000, dated 2006)

Assay: log P determination by HPLC on reversed-phase column (C 18), EEC directive 79/831 Annex V.A8
Format: physicochemical
Settings: 43° C.; for chromatographic logP: reversed-phase HPLC column (C 18)
Procedure: The log P values given in the tables and Preparation Examples above are determined in accordance with EEC directive 79/831 Annex V.A8 by HPLC (High Performance Liquid Chromatography) using a reversed-phase column (C 18). Temperature: 43° C. In the acidic range, the determination is carried out at pH 2.3 using the mobile phases 0.1% aqueous phosphoric acid and acetonitrile; linear gradient from 10% acetonitrile to 90% acetonitrile (marked^a) in the table). In the neutral range, the determination is carried out at pH 7.5 using the mobile phases 0.01-molar aqueous phosphate buffer solution and acetonitrile; linear gradient from 10% acetonitrile to 90% acetonitrile (marked^b) in the table). Calibration is carried out using unbranched alkan-2-ones (having 3 to 16 carbon atoms) with known log P values (determination of the log P values by the retention times using linear interpolation between two successive alkanones).

[1] = pH 2.3, pH 2.3 (marked a), 0.1% aqueous phosphoric acid/acetonitrile
[2] = pH 7.5, pH 7.5 (marked b), 0.01-molar aqueous phosphate buffer/acetonitrile

SMILES | chromatographic logP [1] | chromatographic logP [2] | log P (pH 2.3 (marked a), 0.1% aqueous phosphoric acid/acetonitrile)
COC(=O)[C@H]1CC(c2ccccc2Cl)=N[C@H]1c1ccc(-c2ccc(OC(F)(F)F)cc2)cc1 (racemic) [Example 5, methyl ((2S, 3R), (2R, 3S))-5-(2-chlorophenyl)-2-[4′-(trifluoromethoxy)-1,1′-biphenyl-4-yl]-3,4-dihydro-2H-pyrrole-3-carboxylate] | 5.05 |  | 
CCOC(=O)[C@H]1CC(c2c(F)cccc2F)=NC1c1ccc(-c2ccc(OC(F)(F)F)cc2)cc1 (stereo partly drawn) [Example 10] | 4.73 |  | 
O=C(O)[C@H]1CC(c2c(F)cccc2F)=NC1c1ccc(-c2ccc(OC(F)(F)F)cc2)cc1 (stereo partly drawn) [Example 11] | 3.35 |  | 
CC(C)OC(=O)[C@H]1CC(c2c(F)cccc2F)=NC1c1ccc(-c2ccc(OC(F)(F)F)cc2)cc1 (stereo partly drawn) [Example 12] | 5.05 |  | 
CCCCOC(=O)[C@H]1CC(c2c(F)cccc2F)=NC1c1ccc(-c2ccc(OC(F)(F)F)cc2)cc1 (stereo partly drawn) [Example 14] | 5.41 | 5.49 | 
CCCCCCOC(=O)[C@H]1CC(c2c(F)cccc2F)=NC1c1ccc(-c2ccc(OC(F)(F)F)cc2)cc1 (stereo partly drawn) [Example 15] | 6.11 | 6.18 | 
CCC(C)OC(=O)[C@H]1CC(c2c(F)cccc2F)=NC1c1ccc(-c2ccc(OC(F)(F)F)cc2)cc1 (stereo partly drawn) [Example 16] | 5.4 | 5.48 | 
CC(C)COC(=O)[C@H]1CC(c2c(F)cccc2F)=NC1c1ccc(-c2ccc(OC(F)(F)F)cc2)cc1 (stereo partly drawn) [Example 17] | 5.38 | 5.47 | 
O=C(OC1CCCC1)[C@H]1CC(c2c(F)cccc2F)=NC1c1ccc(-c2ccc(OC(F)(F)F)cc2)cc1 (stereo partly drawn) [Example 18] | 5.47 | 5.54 | 
O=C(OC1CCCCC1)[C@H]1CC(c2c(F)cccc2F)=NC1c1ccc(-c2ccc(OC(F)(F)F)cc2)cc1 (stereo partly drawn) [Example 19] | 5.85 | 5.91 | 
CCCCCOC(=O)[C@H]1CC(c2c(F)cccc2F)=NC1c1ccc(-c2ccc(OC(F)(F)F)cc2)cc1 (stereo partly drawn) [Example 20] | 5.84 |  | 
CC(C)(C)COC(=O)[C@H]1CC(c2c(F)cccc2F)=NC1c1ccc(-c2ccc(OC(F)(F)F)cc2)cc1 (stereo partly drawn) [Example 21] | 5.78 |  | 
CC(C)C(C)OC(=O)[C@H]1CC(c2c(F)cccc2F)=NC1c1ccc(-c2ccc(OC(F)(F)F)cc2)cc1 (stereo partly drawn) [Example 22] | 5.71 |  | 
CCC(CC)OC(=O)[C@H]1CC(c2c(F)cccc2F)=NC1c1ccc(-c2ccc(OC(F)(F)F)cc2)cc1 (stereo partly drawn) [Example 23] | 5.78 |  | 
COCCOC(=O)[C@H]1CC(c2c(F)cccc2F)=NC1c1ccc(-c2ccc(OC(F)(F)F)cc2)cc1 (stereo partly drawn) [Example 24] | 4.37 |  | 
N#CCCOC(=O)[C@H]1CC(c2c(F)cccc2F)=NC1c1ccc(-c2ccc(OC(F)(F)F)cc2)cc1 (stereo partly drawn) [Example 25] | 4.08 |  | 
C=CCCCOC(=O)[C@H]1CC(c2c(F)cccc2F)=NC1c1ccc(-c2ccc(OC(F)(F)F)cc2)cc1 (stereo partly drawn) [Example 26] | 5.48 |  | 
C=C(C)CCOC(=O)[C@H]1CC(c2c(F)cccc2F)=NC1c1ccc(-c2ccc(OC(F)(F)F)cc2)cc1 (stereo partly drawn) [Example 27] | 5.48 |  | 
O=C(OCc1ccoc1)[C@H]1CC(c2c(F)cccc2F)=NC1c1ccc(-c2ccc(OC(F)(F)F)cc2)cc1 (stereo partly drawn) [Example 28] | 4.87 |  | 
N#CCOC(=O)[C@H]1CC(c2c(F)cccc2F)=NC1c1ccc(-c2ccc(OC(F)(F)F)cc2)cc1 (stereo partly drawn) [Example 29] | 4.23 |  | 

SMILES | chromatographic logP [1] | chromatographic logP [2] | log P (pH 2.3 (marked a), 0.1% aqueous phosphoric acid/acetonitrile)
N#CCCCOC(=O)[C@H]1CC(c2c(F)cccc2F)=NC1c1ccc(-c2ccc(OC(F)(F)F)cc2)cc1 (stereo partly drawn) [Example 30] | 4.18 |  | 
O=C(OC/C=C/c1ccccc1)[C@H]1CC(c2c(F)cccc2F)=NC1c1ccc(-c2ccc(OC(F)(F)F)cc2)cc1 (stereo partly drawn) [Example 31] | 5.55 |  | 
CC(C)(COC(=O)[C@H]1CC(c2c(F)cccc2F)=NC1c1ccc(-c2ccc(OC(F)(F)F)cc2)cc1)[N+](=O)[O-] (stereo partly drawn) [Example 32] | 4.77 |  | 
O=C(OCCCc1ccccc1)[C@H]1CC(c2c(F)cccc2F)=NC1c1ccc(-c2ccc(OC(F)(F)F)cc2)cc1 (stereo partly drawn) [Example 33] | 5.78 |  | 
O=C(OCc1ccccc1)[C@H]1CC(c2c(F)cccc2F)=NC1c1ccc(-c2ccc(OC(F)(F)F)cc2)cc1 (stereo partly drawn) [Example 34] | 5.31 |  | 
O=C(OCc1ccccc1Cl)[C@H]1CC(c2c(F)cccc2F)=NC1c1ccc(-c2ccc(OC(F)(F)F)cc2)cc1 (stereo partly drawn) [Example 35] | 5.65 |  | 
O=C(OCc1cccc(Cl)c1)[C@H]1CC(c2c(F)cccc2F)=NC1c1ccc(-c2ccc(OC(F)(F)F)cc2)cc1 (stereo partly drawn) [Example 36] | 5.58 |  | 
CC(OC(=O)[C@H]1CC(c2c(F)cccc2F)=NC1c1ccc(-c2ccc(OC(F)(F)F)cc2)cc1)c1ccccc1 (stereo partly drawn) [Example 38] | 5.54 |  | 
COC(=O)[C@@H](C)COC(=O)[C@H]1CC(c2c(F)cccc2F)=NC1c1ccc(-c2ccc(OC(F)(F)F)cc2)cc1 (stereo partly drawn) [Example 39] | 4.67 |  | 
COC(=O)[C@H](C)COC(=O)[C@H]1CC(c2c(F)cccc2F)=NC1c1ccc(-c2ccc(OC(F)(F)F)cc2)cc1 (stereo partly drawn) [Example 40] | 4.67 |  | 
O=C(OCC1CCCCC1)[C@H]1CC(c2c(F)cccc2F)=NC1c1ccc(-c2ccc(OC(F)(F)F)cc2)cc1 (stereo partly drawn) [Example 41] | 6.28 |  | 
O=C(OCCOc1ccccc1)[C@H]1CC(c2c(F)cccc2F)=NC1c1ccc(-c2ccc(OC(F)(F)F)cc2)cc1 (stereo partly drawn) [Example 42] | 5.21 |  | 
O=C(OCc1cccs1)[C@H]1CC(c2c(F)cccc2F)=NC1c1ccc(-c2ccc(OC(F)(F)F)cc2)cc1 (stereo partly drawn) [Example 43] | 5.19 |  | 
O=C(OCc1ccsc1)[C@H]1CC(c2c(F)cccc2F)=NC1c1ccc(-c2ccc(OC(F)(F)F)cc2)cc1 (stereo partly drawn) [Example 44] | 5.14 |  | 
O=C(OCCCN1CCCC1=O)[C@H]1CC(c2c(F)cccc2F)=NC1c1ccc(-c2ccc(OC(F)(F)F)cc2)cc1 (stereo partly drawn) [Example 45] | 3.72 |  | 
CC(C)N(C(=O)COC(=O)[C@H]1CC(c2c(F)cccc2F)=NC1c1ccc(-c2ccc(OC(F)(F)F)cc2)cc1)c1ccc(F)cc1 (stereo partly drawn) [Example 46] | 4.98 |  | 
O=C(OCc1ccc(Cl)nc1)[C@H]1CC(c2c(F)cccc2F)=NC1c1ccc(-c2ccc(OC(F)(F)F)cc2)cc1 (stereo partly drawn) [Example 47] | 4.82 |  | 
CC1CCC(OC(=O)[C@H]2CC(c3c(F)cccc3F)=NC2c2ccc(-c3ccc(OC(F)(F)F)cc3)cc2)CC1 (stereo partly drawn) [Example 48] | 6.22 |  | 
CC1CCC(OC(=O)[C@H]2CC(c3c(F)cccc3F)=NC2c2ccc(-c3ccc(OC(F)(F)F)cc3)cc2)CC1 (stereo partly drawn) [Example 49] |  |  | 6.28^a)
CC(OC(=O)[C@H]1CC(c2c(F)cccc2F)=NC1c1ccc(-c2ccc(OC(F)(F)F)cc2)cc1)C1CCCCC1 (stereo partly drawn) [Example 50] | 6.54 |  | 

SMILES | chromatographic logP [1] | chromatographic logP [2] | log P (pH 2.3 (marked a), 0.1% aqueous phosphoric acid/acetonitrile)
O=C(OC1CCCc2ccccc21)[C@H]1CC(c2c(F)cccc2F)=NC1c1ccc(-c2ccc(OC(F)(F)F)cc2)cc1 (stereo partly drawn) [Example 51] | 5.97 |  | 
O=C(OC1CCc2ccccc21)[C@H]1CC(c2c(F)cccc2F)=NC1c1ccc(-c2ccc(OC(F)(F)F)cc2)cc1 (stereo partly drawn) [Example 52] | 5.71 |  | 
O=C(OCc1ccccn1)[C@H]1CC(c2c(F)cccc2F)=NC1c1ccc(-c2ccc(OC(F)(F)F)cc2)cc1 (stereo partly drawn) [Example 53] | 4.13 |  | 
O=C(OCc1cccnc1)[C@H]1CC(c2c(F)cccc2F)=NC1c1ccc(-c2ccc(OC(F)(F)F)cc2)cc1 (stereo partly drawn) [Example 54] | 3.59 |  | 
CC(C)[C@H](C)OC(=O)[C@H]1CC(c2c(F)cccc2F)=NC1c1ccc(-c2ccc(OC(F)(F)F)cc2)cc1 (stereo partly drawn) [Example 55] | 5.74 | 5.77 | 
CC(C)[C@@H](C)OC(=O)[C@H]1CC(c2c(F)cccc2F)=NC1c1ccc(-c2ccc(OC(F)(F)F)cc2)cc1 (stereo partly drawn) [Example 56] | 5.65 | 5.86 | 
CNC(=O)[C@H]1CC(c2c(F)cccc2F)=NC1c1ccc(-c2ccc(OC(F)(F)F)cc2)cc1 (stereo partly drawn) [Example 58] | 3.26 |  | 
CCNC(=O)[C@H]1CC(c2c(F)cccc2F)=NC1c1ccc(-c2ccc(OC(F)(F)F)cc2)cc1 (stereo partly drawn) [Example 59] | 3.49 |  | 
CCCNC(=O)[C@H]1CC(c2c(F)cccc2F)=NC1c1ccc(-c2ccc(OC(F)(F)F)cc2)cc1 (stereo partly drawn) [Example 60] | 3.78 |  | 
CCCCNC(=O)[C@H]1CC(c2c(F)cccc2F)=NC1c1ccc(-c2ccc(OC(F)(F)F)cc2)cc1 (stereo partly drawn) [Example 61] | 4.03 |  | 
CCCCCNC(=O)[C@H]1CC(c2c(F)cccc2F)=NC1c1ccc(-c2ccc(OC(F)(F)F)cc2)cc1 (stereo partly drawn) [Example 62] | 4.37 |  | 
CCCCCCNC(=O)[C@H]1CC(c2c(F)cccc2F)=NC1c1ccc(-c2ccc(OC(F)(F)F)cc2)cc1 (stereo partly drawn) [Example 63] | 4.67 |  | 
CC(C)NC(=O)[C@H]1CC(c2c(F)cccc2F)=NC1c1ccc(-c2ccc(OC(F)(F)F)cc2)cc1 (stereo partly drawn) [Example 64] | 3.74 |  | 
CC(C)(C)NC(=O)[C@H]1CC(c2c(F)cccc2F)=NC1c1ccc(-c2ccc(OC(F)(F)F)cc2)cc1 (stereo partly drawn) [Example 65] | 4.23 |  | 
O=C(NC1CCCCC1)[C@H]1CC(c2c(F)cccc2F)=NC1c1ccc(-c2ccc(OC(F)(F)F)cc2)cc1 (stereo partly drawn) [Example 66] | 4.37 |  | 
CN(C)C(=O)[C@H]1CC(c2c(F)cccc2F)=NC1c1ccc(-c2ccc(OC(F)(F)F)cc2)cc1 (stereo partly drawn) [Example 67] | 3.61 |  | 
CCN(C)C(=O)[C@H]1CC(c2c(F)cccc2F)=NC1c1ccc(-c2ccc(OC(F)(F)F)cc2)cc1 (stereo partly drawn) [Example 68] | 3.9 |  | 
CCCN(C)C(=O)[C@H]1CC(c2c(F)cccc2F)=NC1c1ccc(-c2ccc(OC(F)(F)F)cc2)cc1 (stereo partly drawn) [Example 69] | 4.23 |  | 
